The values below come from patent US6677306B1, “Chondrogenic and osteogenic inducing molecule” (Northwestern University, priority 1998, dated 2004).

Entries after “also recorded” stand apart in the source; their conditions may differ.

Test [1] relates to embryonic rat muscle fibroblasts (EMF). Briefly: Cell number of EMF after exposure to factors. Format: cell-based. To be noted: after 5 days in culture, after a 24 h exposure.
Description: In vitro assay for chondrogenic activity: The purified recombinant proteins were tested for biological activity by the assay for enhanced incorporation of ^35S—SO4 into proteoglycan (8,11) by embryonic rat muscle fibroblasts (EMF). The EMF were seeded onto type I collagen coated 96 well plates, with an initial loading of 10^4 cell/well. The cells were grown to near confluence in alpha MEM, 10% FBS, 1% Pen/Strep in 5 days. At day 5 the growth media was replaced with conditioning media (CM), alpha MEM, 0.5% FBS, 1% Pen/Strep, and grown for an additional 24 h. Fresh CM containing the factors to be tested, was added at the concentrations noted. Four hours later, 1 μCi^35 S—SO4 in 10 μL sterile PBS was added per well, and incubation was continued for 20 h. The ^35S—SO4 incorporated into secreted proteoglycan was determined by precipitation of the proteoglycan with cetyl pyridinium chloride, as described above, followed by scintillation counting of the precipitate. The cell layer was trypsinized and the number of cells counted. Incorporation is presented as counts per minute per cell ×10^3. Recombinant human BMP2 (A kind gift from the Genetics Institute, Boston, Mass.) and the bioactive crude S100 fractions from rat incisor dentin (Amar et al., 1991) and/or bovine dentin (see Example 1) were used as the positive controls. […]
Test [2] has as its system embryonic muscle fibroblasts (EMF). Briefly: EMF [35S]-SO4-incorporation assay (sulfate incorporation into proteoglycan). Type of test: cell-based, rat. To be noted: for activity in directing change in phenotype of embryonic rat muscle fibroblasts in vitro: compared with rBMP-2.
Excerpt: Embryonic Muscle Fibroblast (EMF) Tissue Culture Assay Embryonic Muscle Fibroblasts. Rat EMF cells were derived from the thigh muscles of 20 day old Sprague Dawley rat embryos for use in primary tissue culture assays using a modification of the Koskinen harvesting technique (Koskinen et al., 1985), and grown in growth media (GM) [α-Modified Eagle's Medium (αMEM , Life Technologies, Gaithersburg, Md.), containing 10% heat inactivated fetal bovine serum (FBS), 1% Penicillin/Streptomycin (P/S)] in 5% O2/95% air at 37° C. EMFs were frozen at passage 2 (P-2).
Short Term Culture and Labeling with ^35SO4—Sulfate. The EMFs were plated (day 0) at a concentration of 10^4 cells per well in a 96 well plate which had been precoated with 100 μl of a 50 μg/ml solution of type I Rat Tail Collagen (Collaborative Biomedical Products). The cells were grown for 5 days in GM. On day 5, the cells were conditioned by removing the GM and adding conditioning media (CM) (αMEM containing 0.5% FBS, 1 % P/S) for 24 hours. This media was replaced with 100 μl of fresh CM, just prior to the addition of the test factors (hour 0). Test factors were added to test wells in triplicate. PBS/0. […] 1% BSA, were used as positive controls. Four hours following the addition of factors, the cells were labeled with 1 μCi ^35S—SO4/10 μl sterile PBS/well/96 well plate for 20 hours.
Assay of ^35S Sulfate Incorporation Into Proteoglycans in the Medium. In a departure from the Koskinen et al. (1985) protocol, glycosaminoglycan synthesis was routinely determined by the measurement of incorporation of ^35S sulfate (ICM Biomedical, Costa Mesa, Calif.) into the total cetylpyridinium chloride (CPC)-precipitable materials in the media without prior papain digestion. […] The total medium from each well (˜115 μl) was placed into a 13×100 mm glass culture tube. 150 μl of 100 μg/ml Chondroitin Sulfate A Sodium Salt (Sigma, St. Louis, Mo.) at 4° C. (buffer C), was added to each tube to serve as a carrier. 500 μl of 2.0 mM MgSO4. 4° C. (buffer B), was added. The mixture was incubated in a 37° C. water bath with shaking for 30 minutes. One ml of 1% CPC in 0.02M NaCl (buffer D) was added and incubated at 37° C. for 60 minutes in the water bath.
The samples were filtered through Whatman GF/A glass microfibre filters using a Millipore 12 well filtration device. The contents of each glass tube were individually poured into one of the wells under suction. The tube and filters were washed with buffer B 3 times. The filters were allowed to dry briefly, and were transferred to a scintillation vial. Then 5 ml scintillation cocktail was added per vial and the radioactive counts were measured in the scintillation counter.
In vitro assay for chondrogenic activity: The purified recombinant proteins were tested for biological activity by the assay for enhanced incorporation of ^35S—SO4 into proteoglycan (8,11) by embryonic rat muscle fibroblasts (EMF). The EMF were seeded onto type I collagen coated 96 well plates, with an initial loading of 10^4 cell/well. The cells were grown to near confluence in alpha MEM, 10% FBS, 1% Pen/Strep in 5 days. At day 5 the growth media was replaced with conditioning media (CM), alpha MEM, 0.5% FBS, 1% Pen/Strep, and grown for an additional 24 h. Fresh CM containing the factors to be tested, was added at the concentrations noted. Four hours later, 1 μCi^35 S—SO4 in 10 μL sterile PBS was added per well, and incubation was continued for 20 h. The ^35S—SO4 incorporated into secreted proteoglycan was determined by precipitation of the proteoglycan with cetyl pyridinium chloride, as described above, followed by scintillation counting of the precipitate. The cell layer was trypsinized and the number of cells counted.
Test [3] has as its system quadriceps of Long-Evans rats. Put plainly: In vivo osteogenic activity, poly(lactide)-poly(glycolide) scaffold implants in quadriceps. Details: species or system rat. To be noted: for mineral deposition in implants, Alizarin Red and von Kossa staining / radiograph of implants after excision, mineralization pattern / vascularization, cell infiltration and extracellular matrix in implants (H&E) / ingrowth of capillaries and extracellular matrix formation, r(A-4) versus rA4 implants: 4 weeks; for vascularization, cell infiltration and extracellular matrix in implants (H&E): FIG. 15; for activity in inducing onset of osteogenesis in muscle implants in vivo: compared with rBMP-2. The procedure: In vivo osteogenic activity. The recombinant proteins, Emdogain and controls were each included in a bioabsorbable polymer matrix implants. The implants were prepared in poly (lactide)-poly(glycolide) scaffolds by the procedure of Whang et al. (1998) with 167 μg per implant. Implants were placed in the quadriceps of the hind legs of 100 g, 4 week old, male Long-Evans rats. Each animal received a negative control implant containing 167 μg of BSA in PBS. The implants were kept in place for 28 days. The implants were removed and radiographed, then they were fixed in 4% paraformaldehyde, dehydrated in graded ethanol and embedded in paraffin. Sections (7μ thick) were cut and stained with either Von Kossa or Alizarin Red dyes, both of which can indicate the presence of mineralized deposits containing divalent cations. To assure that the stains seen were calcific deposits, serial sections were treated with 5% EGTA for 10 min before staining.

Regarding “r(A-4): recombinant polypeptide SEQ ID NO:5, secreted form of rat amelogenin gene splice product, exons 2, 3, 5, 6d and 7 (MPLPPHPGSPGYINLSYEVLTPLKWYQSMIRQPPLSPILPELPLEAWPATDKTKREEVD; Recombinant rat amelogenin)”, the “cell number (growth factor action)” value in test [1] was “did not increase”. Besides, in test [2], the “activity in directing change in phenotype of embryonic rat muscle fibroblasts in vitro” value is listed as “equivalent to rBMP-2”. In test [2] (monolayer culture, FIG. 13), the “concentration as low as which production of 35S-SO4-labeled proteoglycan was stimulated” value was 1 ng/mL and the “concentration as low as which production of 35S-SO4-labeled proteoglycan was stimulated (molar)” value is given as ~140 pM. Further, in test [3] (167 μg per implant), the “alkaline phosphatase in implants” value is reported as “positive”; the “mineral deposition in implants, Alizarin Red and von Kossa staining” value (from here on “mineral deposition in implants”) is listed as “stained strongly”; the “radiograph of implants after excision, mineralization pattern” value was “heavier mineralization around the periphery”; the “vascularization, cell infiltration and extracellular matrix in implants (H&E)” value was “vascularized and filled with extracellular matrix; also recorded: infiltrated by many cells, and an abundant network of capillaries”. In addition, the “mineral deposition in implants” value in test [3] (167 μg per implant, listed as (A-4)) is “highly positive for deposition of mineral”. In test [3], the “ingrowth of capillaries and extracellular matrix formation, r(A-4) versus rA4 implants” value is “more prominent”; the “activity in inducing onset of osteogenesis in muscle implants in vivo” value is on record as “equivalent to rBMP-2”.

B1: rA4: recombinant polypeptide SEQ ID NO:6, secreted form of rat amelogenin gene splice product, exons 2, 3, 4, 5, 6d and 7 (protein)
chain: MPLPPHPGSPGYINLSYEKSHSQAINTDRTALVLTPLKWYQSMIRQPPLSPILPELPLEAWPATDKTKREEVD
modifications: Recombinant rat amelogenin
As to B1, the “cell number (growth factor action)” value in test [1] is given as “increase”. In test [2], the “activity in directing change in phenotype of embryonic rat muscle fibroblasts in vitro” value is listed as “equivalent to rBMP-2”. Also, in test [2] (equivalent low (ng/ml) concentrations), the “stimulation of 35S-SO4-labeled proteoglycan production at low concentrations, relative to r(A-4)” value is listed as “less active”. The “effect on sulfate incorporation compared with rhBMP-2 positive control” value in test [2] (rhBMP-2 at 10 ng/ml) is reported as “quite comparable”. Besides, in test [3] (167 μg per implant), the “mineral deposition in implants” value is listed as “calcified to a lesser extent”; the “radiograph of implants after excision, mineralization pattern” value was “more punctate deposition of mineral”; the “vascularization, cell infiltration and extracellular matrix in implants (H&E)” value is “vascularized and filled with extracellular matrix; also recorded: vascularized but more sparsely than the r(A-4) implants”. For the same molecule, the “mineral deposition in implants” value in test [3] (167 μg per implant, listed as A4) was “some focal deposits of mineral”. Also, in test [3], the “ingrowth of capillaries and extracellular matrix formation, r(A-4) versus rA4 implants” value was “islands of capillaries, and the formation of a surrounding extracellular matrix was also evident”; the “activity in inducing onset of osteogenesis in muscle implants in vivo” value is reported as “equivalent to rBMP-2”.

B2: rB4: recombinant full-length rat amelogenin, exons 2, 3, 4, 5, 6 and 7 (protein, UniProt P63278 1-210, looked up)
chain: MGTWILFACLLGAAFAMPLPPHPGSPGYINLSYEKSHSQAINTDRTALVLTPLKWYQSMIRQPYPSYGYEPMGGWLHHQIIPVLSQQHPPSHTLQPHHHLPVVPAQQPVAPQQPMMPVPGHHSMTPTQHHQPNIPPSAQQPFQQPFQPQAIPPQSHQPMQPQSPLHPMQPLAPQPPLPPLFSMQPLSPILPELPLEAWPATDKTKREEVD
modifications: full-length
Consider B2, for which the “mineral deposition in implants” value in test [3] (167 μg per implant) was “inactive”.
